Values joined by “and” are separate entries in the source; they are usually repeats but may differ in a detail not shown here. Equal entries are not always repeated. Where two headings read alike, the source gives them in different places. Marks after values point to notes of the source that are not given here.
Key:
[1] = biological target: T1, IGF-1R (Homo sapiens, UniProt P08069); test: competition with 125I-IGF-1 on mouse fibroblasts transfected with human IGF-1R; relative to human insulin
[2] = biological target: IR-A (Homo sapiens, UniProt P06213); conditions: published; (Kd of native hormone/Kd of derivative) × 100; cited from earlier work
Chain of IR-A (P06213 28-1370 isoform P06213-2 limits assumed): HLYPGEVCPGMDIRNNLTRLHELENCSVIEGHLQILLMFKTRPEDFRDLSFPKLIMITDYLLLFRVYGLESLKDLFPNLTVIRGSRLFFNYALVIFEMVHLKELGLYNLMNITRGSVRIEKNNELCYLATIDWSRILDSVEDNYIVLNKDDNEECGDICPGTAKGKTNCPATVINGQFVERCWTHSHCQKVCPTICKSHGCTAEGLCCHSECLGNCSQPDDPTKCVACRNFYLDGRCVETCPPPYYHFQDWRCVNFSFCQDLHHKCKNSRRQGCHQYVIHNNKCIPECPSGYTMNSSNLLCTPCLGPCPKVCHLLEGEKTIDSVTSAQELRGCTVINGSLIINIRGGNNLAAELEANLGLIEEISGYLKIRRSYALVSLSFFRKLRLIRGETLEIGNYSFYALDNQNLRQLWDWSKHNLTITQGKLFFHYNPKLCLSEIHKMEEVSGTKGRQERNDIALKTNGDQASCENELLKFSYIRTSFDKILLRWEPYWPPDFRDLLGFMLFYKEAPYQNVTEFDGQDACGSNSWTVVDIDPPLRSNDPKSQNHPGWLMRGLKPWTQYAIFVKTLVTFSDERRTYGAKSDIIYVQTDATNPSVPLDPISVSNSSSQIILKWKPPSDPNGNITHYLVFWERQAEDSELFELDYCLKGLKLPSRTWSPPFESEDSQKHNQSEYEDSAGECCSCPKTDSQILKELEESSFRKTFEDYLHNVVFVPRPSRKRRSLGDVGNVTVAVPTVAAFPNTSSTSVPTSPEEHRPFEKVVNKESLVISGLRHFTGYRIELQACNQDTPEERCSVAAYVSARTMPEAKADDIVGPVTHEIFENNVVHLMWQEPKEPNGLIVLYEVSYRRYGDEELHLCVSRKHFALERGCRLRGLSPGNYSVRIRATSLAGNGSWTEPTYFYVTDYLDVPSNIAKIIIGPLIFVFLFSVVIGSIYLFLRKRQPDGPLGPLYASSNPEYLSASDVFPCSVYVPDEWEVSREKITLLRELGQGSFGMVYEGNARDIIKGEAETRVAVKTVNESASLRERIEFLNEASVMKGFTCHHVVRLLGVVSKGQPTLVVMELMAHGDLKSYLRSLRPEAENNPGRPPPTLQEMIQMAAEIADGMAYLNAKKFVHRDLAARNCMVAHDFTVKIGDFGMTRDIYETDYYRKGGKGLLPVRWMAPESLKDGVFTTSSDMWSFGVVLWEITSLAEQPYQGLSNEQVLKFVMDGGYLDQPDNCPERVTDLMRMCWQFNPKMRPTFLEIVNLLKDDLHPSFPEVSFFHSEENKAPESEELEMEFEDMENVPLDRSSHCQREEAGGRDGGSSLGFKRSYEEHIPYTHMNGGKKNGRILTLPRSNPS
Chain of IR-A (P06213 763-1382 limits assumed): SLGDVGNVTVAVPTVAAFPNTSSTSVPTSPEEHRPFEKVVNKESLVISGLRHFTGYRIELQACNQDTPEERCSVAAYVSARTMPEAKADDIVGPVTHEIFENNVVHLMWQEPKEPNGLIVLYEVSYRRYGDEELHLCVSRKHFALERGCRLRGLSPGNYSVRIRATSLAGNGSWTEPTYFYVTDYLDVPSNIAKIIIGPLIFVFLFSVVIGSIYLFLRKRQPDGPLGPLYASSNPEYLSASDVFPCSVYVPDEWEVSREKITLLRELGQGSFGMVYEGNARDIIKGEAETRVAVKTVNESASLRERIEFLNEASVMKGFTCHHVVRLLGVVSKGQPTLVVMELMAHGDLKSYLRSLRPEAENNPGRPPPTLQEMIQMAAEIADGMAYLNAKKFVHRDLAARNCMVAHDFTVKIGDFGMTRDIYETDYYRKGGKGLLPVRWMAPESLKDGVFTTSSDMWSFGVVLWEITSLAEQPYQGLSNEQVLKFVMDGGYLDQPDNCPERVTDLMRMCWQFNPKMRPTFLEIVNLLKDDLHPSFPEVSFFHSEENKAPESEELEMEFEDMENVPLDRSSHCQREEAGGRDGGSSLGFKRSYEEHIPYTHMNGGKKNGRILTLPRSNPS

[3] = biological target: IR-B (Homo sapiens, UniProt P06213); conditions: published; (Kd of native hormone/Kd of derivative) × 100; cited from earlier work
Chain of IR-B (P06213 28-758 limits assumed): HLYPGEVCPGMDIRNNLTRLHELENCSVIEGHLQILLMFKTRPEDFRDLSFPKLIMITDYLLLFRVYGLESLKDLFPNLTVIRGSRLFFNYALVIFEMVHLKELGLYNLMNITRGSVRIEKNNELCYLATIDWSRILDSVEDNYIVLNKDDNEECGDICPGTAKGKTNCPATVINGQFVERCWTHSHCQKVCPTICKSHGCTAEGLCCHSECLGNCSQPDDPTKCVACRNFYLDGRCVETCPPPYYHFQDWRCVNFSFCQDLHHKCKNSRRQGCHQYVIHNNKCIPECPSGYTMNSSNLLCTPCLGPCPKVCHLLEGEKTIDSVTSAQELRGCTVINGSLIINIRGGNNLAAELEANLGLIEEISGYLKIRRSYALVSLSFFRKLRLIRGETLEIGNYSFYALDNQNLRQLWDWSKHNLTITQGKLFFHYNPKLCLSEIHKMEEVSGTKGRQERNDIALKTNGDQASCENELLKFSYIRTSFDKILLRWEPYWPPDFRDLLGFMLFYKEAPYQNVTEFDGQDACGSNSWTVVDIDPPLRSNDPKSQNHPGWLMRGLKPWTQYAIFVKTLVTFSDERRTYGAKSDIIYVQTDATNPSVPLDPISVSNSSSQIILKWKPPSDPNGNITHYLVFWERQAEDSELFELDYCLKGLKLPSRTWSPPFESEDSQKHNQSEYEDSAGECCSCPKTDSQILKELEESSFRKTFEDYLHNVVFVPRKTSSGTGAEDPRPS
Chain of IR-B (P06213 763-1382 limits assumed): as the sequence (P06213 763-1382 limits assumed) above

[4] = biological target: T1, IGF-1R; conditions: cited from earlier work
[5] = tested on: SH-SY5Y cells; test: Protection of SH-SY5Y cells against methylglyoxal toxicity (MTT assay); assay type: cell-based; conditions: methylglyoxal 1.5 mmol·l-1, SY5Y cells
[6] = published, (Kd of native hormone/Kd of derivative) × 100

Chain of IN-ML-15 (GluB10, D-HisB24, GlyB31, TyrB32-insulin) (ligand) (chain): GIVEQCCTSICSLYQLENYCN
Chain of IN-ML-15 (GluB10, D-HisB24, GlyB31, TyrB32-insulin) (ligand) (chain): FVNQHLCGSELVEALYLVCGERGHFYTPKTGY

Row | Compound | Relative binding affinity for IR-A (%) [2] | Relative binding affinity for IR-B (%) [3] | Relative binding affinity for IGF-1R (%) [4, 6] | also measured
1 | IN-ML-15 (GluB10, D-HisB24, GlyB31, TyrB32-insulin) (ligand) | – | – | – | times more potent than insulin [1]: 790 times
2 | GlyB31, TyrB32-insulin | 162% | 310% | 0.27% | –
3 | GluB10-insulin | 407% | – | – | –
4 | D-HisB24-insulin | 280% | 250% | 1.0% | –
5 | CC(=O)C=O [Methylglyoxal, methylglyoxal] | – | – | – | amount of cells grown in the wells compared with the control [5]: 50-60%
6 | D-HisB24, GlyB31, TyrB32-insulin | 251% | 338% | 12% and 12.4% | –
7 | D-ProB24-insulin | 1.3% | – | – | –
8 | AspB10-insulin | 206% | – | – | Relative binding affinity for IGF-1R (%) ([4]; Converted from Schaffer data): 0.2* %
9 | D-AlaB24-insulin | 150% | – | – | –
10 | D-PheB24-insulin | 180% | – | – | –

Reference: patent publication US20260174874A1, “INSULIN DERIVATIVES” (USTAV ORGANICKE CHEMIE A BIOCHEMIE AKADEMIE VED CR, V. V. I., priority 2022, published 2026)
